In patent EP0514268A1, “Substituted amino acid azetidinyl pyridone derivatives, their preparation and use as medicines” (LABORATORIOS DEL DR. ESTEVE, S.A., priority 1991, dated 1992):
In brackets after ≈: the same amount, converted by molar mass.

Legend:
[1] = Solubility in water and at pH 7.4; format: physicochemical
From the text: Un grand nombre des composés de l'invention manifestent une augmentation de la solubilité dans l'eau ainsi que de la solubilité à pH 7,4 lorsqu'on compare avec les composés de référence. L'augmentation de solubilité au pH physiologique peut favoriser l'absorption du produit et la solubilité élevée dans l'eau permet l'administration du composé par voie parentérale.

[2] = system: Citr. freundii ATCC 11606; assay: Antimicrobial activity, agar dilution; format: cell-based, Citrobacter freundii; conditions: Citrobacter freundii, ATCC11606, 20 h, Agar Dextrose dilutions, 37°C, 20 heures, read-out: Activité pharmacologique antimicrobienne (concentrations)
From the text: (§1) L'activité pharmacologique antimicrobienne de ces composés a été étudiée selon les références exposées ci-dessous.
(§2) Activité pharmacologique antimicrobienne : G.L. Daquet et Y.A. Chabbect, techniques en bactériologie, Vol. 3, Flammarion Médecine-Sciences, Paris 1972, et W.B. Hugo et A.D. Rusell, Pharmaceutical Microbiology, Blackwell Scientific Publications, London, 1977.
(§3) Milieu de culture et solvant : Agar d'antibiotiques n° 1 (Oxoid CM 327) Bouillon de triptone-soja (Oxoid CM 129) Solution Physiologique Ringer 1/4 (Oxoid BR 52) Agar Dextrose (BBL 11165)
(§4) Microorganismes : "Bacillus subtilis" ATCC 6633 "Citrobacter freundii" ATCC 112606 "Enterobacter aerogenes" ATCC 15038 "Enterobacter cloacae" ATCC 23355 "Bacillus cereus" ATCC 1178 "Escherichia coli" ATCC 10799 "Escherichia coli" ATCC 23559 "Klebsiella pneumoniae" ATCC 10031 "Proteus vulgaris" ATCC 8427 "Morg. morganii" ATCC 8019 "Pseudomonas aeruginosa" ATCC 9721 "Pseudomonas aeruginosa" ATCC 10145 "Salmonella typhimurium" ATCC 14028 "Salmonella typhimurium" ATCC 6539 "Serratia marcescens" ATCC 13880 "Shigella flexnerii" ATCC 12022 "Staphylococcusepidermis" ATCC 155-1 "Staphylococcus aureus" ATCC 25178 "Streptococcus faecalis" ATCC 10541.
(§5) Chacun des microorganismes est ensemencé par strie dans des tubes d'Agar d'antibiotiques n° 1, et mis en incubation pendant 20 heures à 37°C. Ensuite, on prend une anse de culture, on ensemence dans un bouillon de Triptone-soja et on incube pendant 20 heures à 37°C. On dilue à 1/4 la culture obtenue avec une solution physiologique Ringer, de façon à obtenir une suspension normalisée de […] pour chaque organisme.
(§6) A partir d'une solution de 100 µg/ml, chaque produit est dilué dans l'Agar Dextrose (préalablement fondu et maintenu à 50°C) par dilutions successives de façon à obtenir les concentrations suivantes : 64-32-16-8-4-2-1-0,5-0,25-0,125 µg de dérivé/ml du milieu.
(§7) Postérieurement, chaque concentration de chaque produit est répartie dans des boîtes de Petri de 10 cm de diamètre, à raison de 10 ml de milieu par boîte et autant de boîtes que de microorganismes à tester.
(§8) Une fois le milieu refroidi, les boîtes sont ensemencées avec les inoculations à raison de 0,4 ml d'inoculation par boîte. On les étend avec une anse de Driglasky et on recueille le surnageant. Les boîtes ensemencées sont incubées à 37°C pendant 20 heures.
(§9) Les résultats obtenus sont décrits dans les tableaux suivants. Les concentrations sont données en µg/ml.

Staph. aureus ATCC 25178 = assay: Antimicrobial activity, agar dilution; format: cell-based, Staphylococcus aureus; conditions: Staphylococcus aureus, ATCC25178, 20 h, Agar Dextrose dilutions, 37°C, 20 heures, read-out: Activité pharmacologique antimicrobienne (concentrations)
From the text: as §1, §2, §3, §4, §5, §6, §7, §8, §9

[3] = system: Serr. marcescens ATCC 13880; assay: Antimicrobial activity, agar dilution; format: cell-based, Serratia marcescens; conditions: Serratia marcescens, ATCC13880, 20 h, Agar Dextrose dilutions, 37°C, 20 heures, read-out: Activité pharmacologique antimicrobienne (concentrations)
From the text: as §1, §2, §3, §4, §5, §6, §7, §8, §9

Sal. typhi ATCC 6539 = assay: Antimicrobial activity, agar dilution; format: cell-based; conditions: Salmonella enterica, 20 h, read-out: Activité pharmacologique antimicrobienne (concentrations)
From the text: as §1, §2, §3, §4, §5, §6, §7, §8, §9

[4] = system: Ps. aeruginosa ATCC 10145; assay: Antimicrobial activity, agar dilution; format: cell-based; conditions: Pseudomonas aeruginosa, ATCC10145, 20 h, Agar Dextrose dilutions, 37°C, 20 heures, read-out: Activité pharmacologique antimicrobienne (concentrations)
From the text: as §1, §2, §3, §4, §5, §6, §7, §8, §9

[5] = system: Bacillus subtilis ATCC 6633; assay: Antimicrobial activity, agar dilution; format: cell-based; conditions: ATCC6633, 20 h, Agar Dextrose dilutions, 37°C, 20 heures, read-out: Activité pharmacologique antimicrobienne (concentrations)
From the text: as §1, §2, §3, §4, §5, §6, §7, §8, §9

[6] = system: Escherichia coli ATCC 23559; assay: Antimicrobial activity, agar dilution; format: cell-based; conditions: Escherichia coli, ATCC23559, 20 h, Agar Dextrose dilutions, 37°C, 20 heures, read-out: Activité pharmacologique antimicrobienne (concentrations)
From the text: as §1, §2, §3, §4, §5, §6, §7, §8, §9

[7] = system: Staph. epidermidis ATCC 155-1; assay: Antimicrobial activity, agar dilution; format: cell-based; conditions: Staphylococcus epidermidis, ATCC155, 20 h, Agar Dextrose dilutions, 37°C, 20 heures, read-out: Activité pharmacologique antimicrobienne (concentrations)
From the text: as §1, §2, §3, §4, §5, §6, §7, §8, §9

[8] = system: Shigella flexnerii ATCC 12022; assay: Antimicrobial activity, agar dilution; format: cell-based; conditions: ATCC12022, 20 h, Agar Dextrose dilutions, 37°C, 20 heures, read-out: Activité pharmacologique antimicrobienne (concentrations)
From the text: as §1, §2, §3, §4, §5, §6, §7, §8, §9

[9] = system: Bacillus cereus ATCC 11778; assay: Antimicrobial activity, agar dilution; format: cell-based; conditions: Bacillus cereus, ATCC11778, 20 h, Agar Dextrose dilutions, 37°C, 20 heures, read-out: Activité pharmacologique antimicrobienne (concentrations)
From the text: as §1, §2, §3, §4, §5, §6, §7, §8, §9

[10] = system: Escherichia coli ATCC 10799; assay: Antimicrobial activity, agar dilution; format: cell-based; conditions: Escherichia coli, ATCC10799, 20 h, Agar Dextrose dilutions, 37°C, 20 heures, read-out: Activité pharmacologique antimicrobienne (concentrations)
From the text: as §1, §2, §3, §4, §5, §6, §7, §8, §9

Ps. aeruginosa ATCC 9721 = assay: Antimicrobial activity, agar dilution; format: cell-based; conditions: Pseudomonas aeruginosa, ATCC9721, 20 h, Agar Dextrose dilutions, 37°C, 20 heures, read-out: Activité pharmacologique antimicrobienne (concentrations)
From the text: as §1, §2, §3, §4, §5, §6, §7, §8, §9

Morg. morganii ATCC 8019 = assay: Antimicrobial activity, agar dilution; format: cell-based; conditions: Morganella morganii, ATCC8019, 20 h, Agar Dextrose dilutions, 37°C, 20 heures, read-out: Activité pharmacologique antimicrobienne (concentrations)
From the text: as §1, §2, §3, §4, §5, §6, §7, §8, §9

[11] = system: Proteus vulgaris ATCC 8427; assay: Antimicrobial activity, agar dilution; format: cell-based; conditions: Proteus vulgaris, ATCC8427, 20 h, Agar Dextrose dilutions, 37°C, 20 heures, read-out: Activité pharmacologique antimicrobienne (concentrations)
From the text: as §1, §2, §3, §4, §5, §6, §7, §8, §9

[12] = system: Sal. typhimurium ATCC 14028; assay: Antimicrobial activity, agar dilution; format: cell-based, Salmonella typhimurium; conditions: Salmonella enterica, 20 h, Agar Dextrose dilutions, 37°C, 20 heures, read-out: Activité pharmacologique antimicrobienne (concentrations)
From the text: as §1, §2, §3, §4, §5, §6, §7, §8, §9

Ent. cloacae ATCC 23355 = assay: Antimicrobial activity, agar dilution; format: cell-based, Enterobacter cloacae; conditions: Enterobacter cloacae, ATCC23355, 20 h, Agar Dextrose dilutions, 37°C, 20 heures, read-out: Activité pharmacologique antimicrobienne (concentrations)
From the text: as §1, §2, §3, §4, §5, §6, §7, §8, §9

[13] = system: Strep. faecalis ATCC 10541; assay: Antimicrobial activity, agar dilution; format: cell-based, Streptococcus faecalis; conditions: Enterococcus faecalis, ATCC10541, 20 h, Agar Dextrose dilutions, 37°C, 20 heures, read-out: Activité pharmacologique antimicrobienne (concentrations)
From the text: as §1, §2, §3, §4, §5, §6, §7, §8, §9

[14] = system: Kleb. pneumoniae ATCC 10031; assay: Antimicrobial activity, agar dilution; format: cell-based, Klebsiella pneumoniae; conditions: Klebsiella pneumoniae, ATCC10031, 20 h, Agar Dextrose dilutions, 37°C, 20 heures, read-out: Activité pharmacologique antimicrobienne (concentrations)
From the text: as §1, §2, §3, §4, §5, §6, §7, §8, §9

[15] = system: Ent. aerogenes ATCC 15038; assay: Antimicrobial activity, agar dilution; format: cell-based, Enterobacter aerogenes; conditions: Klebsiella aerogenes, ATCC15038, 20 h, Agar Dextrose dilutions, 37°C, 20 heures, read-out: Activité pharmacologique antimicrobienne (concentrations)
From the text: as §1, §2, §3, §4, §5, §6, §7, §8, §9

SMILES	solubility ([1]; pH 7) [µg/mL]	solubility ([1]; water) [µg/mL]	MIC [2] [µg/mL]	MIC (Staph. aureus ATCC 25178) [µg/mL]	MIC [3] [µg/mL]	MIC (Sal. typhi ATCC 6539) [µg/mL]	MIC [4] [µg/mL]	MIC [5] [µg/mL]	MIC [6] [µg/mL]	MIC [7] [µg/mL]	MIC [8] [µg/mL]	MIC [9] [µg/mL]	MIC [10] [µg/mL]	MIC (Ps. aeruginosa ATCC 9721) [µg/mL]	MIC (Morg. morganii ATCC 8019) [µg/mL]	MIC [11] [µg/mL]	MIC [12] [µg/mL]	MIC (Ent. cloacae ATCC 23355) [µg/mL]	MIC [13] [µg/mL]	MIC [14] [µg/mL]	also measured
C[C@H](N)C(=O)N[C@@H](C)C(=O)N[C@@H]1CN(c2nc3c(cc2F)c(=O)c(C(=O)O)cn3C2CC2)[C@H]1C [Exemple 4aAA]	> 500	> 500	2 (≈ 4.22 µM)	4 (≈ 8.43 µM)	8 (≈ 16.9 µM)	2 (≈ 4.22 µM)	> 16	1 (≈ 2.11 µM)	2 (≈ 4.22 µM)	8 (≈ 16.9 µM)	2 (≈ 4.22 µM)	16 (≈ 33.7 µM)	2 (≈ 4.22 µM)	> 16	4 (≈ 8.43 µM)	8 (≈ 16.9 µM)	2 (≈ 4.22 µM)	2 (≈ 4.22 µM)	> 16	8 (≈ 16.9 µM)	MIC [15]: 2 µg/mL (≈ 4.22 µM)
CC(C)C[C@H](N)C(=O)N[C@@H]1CN(c2nc3c(cc2F)c(=O)c(C(=O)O)cn3C2CC2)[C@H]1C [Exemple 4aL, chlorhydratede l'acide 7-[(2S,3R)-2-méthyl-3-Leu-amino-1-azétidinyl]-1-cyclopropyl-6-fluoro-1,4-dihydro-4-oxo-1,8-naphtyridine-3-carboxylique]	> 500	> 500	0.12	0.25	0.25	0.12	8	0.12	0.06	0.25	0.06	0.12	0.12	2	0.25	0.25	0.12	0.12	2	0.06	MIC [15]: 0.12 µg/mL
C[C@H](N)C(=O)NC1CN(c2nc3c(cc2F)c(=O)c(C(=O)O)cn3-c2ccc(F)cc2F)C1 [Exemple 4bA, chlorhydratede l'acide 7-(3-Ala-amino-1-azétidinyl)-1-(2,4-difluorophényl)-6-fluoro-1,4-dihydro-4-oxo-1,8-naphtyridine-3-carboxylique]	66.9	128	1	1	8	1	16	0.5	1	4	1	4	2	8	2	8	2	1	8	1	MIC [15]: 1 µg/mL
NCC(=O)NC1CN(c2nc3c(cc2F)c(=O)c(C(=O)O)cn3-c2ccc(F)cc2F)C1 [Exemple 4bG]	7.6 (≈ 17 µM)	> 500	1 (≈ 2.24 µM)	1 (≈ 2.24 µM)	16 (≈ 35.8 µM)	1 (≈ 2.24 µM)	> 32	1 (≈ 2.24 µM)	0.5 (≈ 1.12 µM)	2 (≈ 4.47 µM)	0.5 (≈ 1.12 µM)	1 (≈ 2.24 µM)	2 (≈ 4.47 µM)	16 (≈ 35.8 µM)	4 (≈ 8.94 µM)	8 (≈ 17.9 µM)	4 (≈ 8.94 µM)	1 (≈ 2.24 µM)	16 (≈ 35.8 µM)	1 (≈ 2.24 µM)	MIC [15]: 1 µg/mL (≈ 2.24 µM)
CC(C)C[C@H](N)C(=O)NC1CN(c2nc3c(cc2F)c(=O)c(C(=O)O)cn3-c2ccc(F)cc2F)C1 [Exemple 4bL, chlorhydratede l'acide 7-(3-Leu-amino-1-azétidinyl)-1-(2,4-difluorophényl)-6-fluoro-1,4-dihydro-4-oxo-1,8-naphtyridine-3-carboxylique]	23.1	> 500	1	4	2	1	8	0.25	0.25	1	0.25	0.5	1	4	2	2	1	0.5	1	0.12	MIC [15]: 0.5 µg/mL
C[C@H](N)C(=O)N[C@@H]1CN(c2cc3c(cc2F)c(=O)c(C(=O)O)cn3-c2ccc(F)cc2F)[C@H]1C [Exemple 4eA]	> 500	> 500	2 (≈ 4.22 µM)	1 (≈ 2.11 µM)	8 (≈ 16.9 µM)	2 (≈ 4.22 µM)	8 (≈ 16.9 µM)	0.5 (≈ 1.05 µM)	1 (≈ 2.11 µM)	16 (≈ 33.7 µM)	0.5 (≈ 1.05 µM)	1 (≈ 2.11 µM)	2 (≈ 4.22 µM)	8 (≈ 16.9 µM)	4 (≈ 8.43 µM)	16 (≈ 33.7 µM)	2 (≈ 4.22 µM)	2 (≈ 4.22 µM)	8 (≈ 16.9 µM)	2 (≈ 4.22 µM)	MIC [15]: 2 µg/mL (≈ 4.22 µM)
